Data taken from ChEMBL document CHEMBL1135053, “Affinity-driven selection of tripeptide inhibitors of ribonucleotide reductase” (Bioorg Med Chem Lett, 2002).
Residues, ends and D or L forms follow the SMILES beside them. *: point of attachment. Fmoc = O=C(OCC1c2ccccc2-c2ccccc21)*

Test: Mouse ribonucleotide reductase (mRR) activity was determined by relative dissociation constant which was assayed for binding activity to mR1

| Structure (SMILES) | Relative Kd |
| --- | --- |
| O=C(N[C@@H](Cc1c[nH]c2ccccc12)C(=O)N[C@@H](Cc1ccccc1)C(=O)N[C@@H](Cc1ccccc1)C(=O)O)OCC1c2ccccc2-c2ccccc21 (Fmoc-Trp-Phe-Phe-OH) | 1 |
| CC(C)C[C@H](NC(=O)OCC1c2ccccc2-c2ccccc21)C(=O)O | 38 |
| CC(=O)N[C@@H](Cc1ccccc1)C(=O)N[C@H](C(=O)N[C@@H](CC(C)C)C(=O)N[C@@H](CC(=O)O)C(=O)N[C@@H](C)C(=O)N[C@@H](CC(=O)O)C(=O)N[C@@H](Cc1ccccc1)C(=O)O)[C@@H](C)O (Ac-FTLDADF-OH) | 1 |

Further lines, results first:

| Relative Kd | Structure (SMILES) |
| --- | --- |
| 18 | O=C(N[C@@H](Cc1c[nH]c2ccccc12)C(=O)O)OCC1c2ccccc2-c2ccccc21 |
| 22 | O=C(N[C@@H](Cc1ccccc1)C(=O)O)OCC1c2ccccc2-c2ccccc21 |
| 31 | O=C(N[C@H](C(=O)O)c1ccccc1)OCC1c2ccccc2-c2ccccc21 |
